The source of these data is patent US11773062B2, “Deuterated compounds” (priority 2021, dated 2023).

Like-named read-outs stand apart in the source and are kept apart here.

As usually defined, the half-life is the time in which the quantity being followed falls by half. As usually defined, the hepatocyte CLint is the rate of metabolic loss divided by the concentration. The low end stands for slow turnover, the high end for rapid turnover.

One data set deals with T1, CYP1A2 (Homo sapiens, UniProt P05177).
T1 sequence (P05177 1-516): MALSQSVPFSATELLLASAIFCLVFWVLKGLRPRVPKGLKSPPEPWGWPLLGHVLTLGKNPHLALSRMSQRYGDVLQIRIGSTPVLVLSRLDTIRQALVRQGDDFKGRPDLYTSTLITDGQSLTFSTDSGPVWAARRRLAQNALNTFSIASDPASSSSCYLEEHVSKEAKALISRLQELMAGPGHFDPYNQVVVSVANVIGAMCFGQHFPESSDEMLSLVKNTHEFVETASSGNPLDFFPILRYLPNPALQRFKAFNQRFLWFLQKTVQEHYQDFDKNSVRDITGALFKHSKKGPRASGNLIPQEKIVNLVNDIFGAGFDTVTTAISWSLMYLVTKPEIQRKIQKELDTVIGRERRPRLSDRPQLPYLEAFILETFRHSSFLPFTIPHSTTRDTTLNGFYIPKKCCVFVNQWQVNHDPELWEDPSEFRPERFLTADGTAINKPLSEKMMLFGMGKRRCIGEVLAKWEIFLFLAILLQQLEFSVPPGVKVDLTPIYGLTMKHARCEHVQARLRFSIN
The data set can be described thus: in vitro. The procedure:
(§1) Samples were taken at predetermined time points.
(§2) Samples were then centrifuged at −4° C.
(§3) Positive control markers are as specified in Table 11.

In another data set the target is CYP2C19 (Homo sapiens, UniProt P33261). The data set can be described thus: in vitro. The procedure:
as §1, §2, §3

A further data set deals with CYP2C9 (Homo sapiens, UniProt P11712). The data set can be described thus: in vitro. The procedure: as §1, §2, §3
Chain of CYP2C9 (P11712 whole entry): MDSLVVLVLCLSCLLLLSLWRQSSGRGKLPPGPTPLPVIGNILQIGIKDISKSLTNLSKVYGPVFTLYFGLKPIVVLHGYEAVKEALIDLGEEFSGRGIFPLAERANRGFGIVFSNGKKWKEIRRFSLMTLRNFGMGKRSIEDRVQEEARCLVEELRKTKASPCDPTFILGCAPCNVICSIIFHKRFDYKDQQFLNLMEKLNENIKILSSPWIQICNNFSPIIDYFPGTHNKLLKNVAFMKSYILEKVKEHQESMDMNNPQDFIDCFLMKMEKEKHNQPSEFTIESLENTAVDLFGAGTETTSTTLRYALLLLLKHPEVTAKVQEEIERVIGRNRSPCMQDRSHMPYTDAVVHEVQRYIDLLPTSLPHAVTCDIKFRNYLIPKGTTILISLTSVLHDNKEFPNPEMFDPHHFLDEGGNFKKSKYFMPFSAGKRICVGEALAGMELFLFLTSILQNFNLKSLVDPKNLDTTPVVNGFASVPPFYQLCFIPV
In another data set the target is CYP3A4 (Homo sapiens, UniProt P08684). Put plainly: in vitro. The procedure: as §1, §2, §3
Chain of CYP3A4 (P08684 whole entry): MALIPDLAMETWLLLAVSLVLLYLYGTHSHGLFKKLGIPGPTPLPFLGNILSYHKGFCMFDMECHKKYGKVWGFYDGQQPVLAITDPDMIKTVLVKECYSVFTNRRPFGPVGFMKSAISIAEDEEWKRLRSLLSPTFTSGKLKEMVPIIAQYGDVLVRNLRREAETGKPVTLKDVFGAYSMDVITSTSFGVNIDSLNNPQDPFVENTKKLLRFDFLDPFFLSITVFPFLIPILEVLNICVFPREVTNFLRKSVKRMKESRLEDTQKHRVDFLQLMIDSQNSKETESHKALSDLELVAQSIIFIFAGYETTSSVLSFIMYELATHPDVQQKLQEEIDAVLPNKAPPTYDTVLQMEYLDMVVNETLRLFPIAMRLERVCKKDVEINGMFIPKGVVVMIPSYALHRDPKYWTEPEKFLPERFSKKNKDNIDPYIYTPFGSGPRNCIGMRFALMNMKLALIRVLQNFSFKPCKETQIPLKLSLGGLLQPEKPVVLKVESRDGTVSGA
The target in data set [1] is T2, CYP2D6 (Homo sapiens, UniProt P10635).
T2 sequence (P10635 whole entry): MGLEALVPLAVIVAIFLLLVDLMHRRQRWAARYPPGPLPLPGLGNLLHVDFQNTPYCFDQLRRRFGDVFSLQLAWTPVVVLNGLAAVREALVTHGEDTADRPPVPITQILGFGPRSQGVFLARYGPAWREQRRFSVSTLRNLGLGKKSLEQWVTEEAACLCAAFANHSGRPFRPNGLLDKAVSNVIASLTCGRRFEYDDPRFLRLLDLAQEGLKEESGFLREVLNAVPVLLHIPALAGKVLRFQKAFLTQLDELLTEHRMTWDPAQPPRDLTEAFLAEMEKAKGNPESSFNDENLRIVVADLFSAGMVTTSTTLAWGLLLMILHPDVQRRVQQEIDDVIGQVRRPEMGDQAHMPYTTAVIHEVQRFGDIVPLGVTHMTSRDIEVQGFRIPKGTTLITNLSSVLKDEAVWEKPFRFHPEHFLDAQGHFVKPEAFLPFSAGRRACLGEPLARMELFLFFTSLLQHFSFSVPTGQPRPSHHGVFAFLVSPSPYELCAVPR
Protocol: (§5) The CYPs used in this study are heterologously expressed in E. coli and purchased as individualised forms (CYP bactosomes) from CYPEX. Bactosomes contain recombinant CYP isoenzymes combined with CYP reductase leading to a higher specific activity than liver microsomes.
(§6) Phosphate buffer is prepared at 0.1 M, pH 7.4 by combining 0.1 M Na2HPO4 and 0.1 M KH2PO4 solutions.
(§7) Nicotinamide adenine dinucleotide 2′-phosphate reduced tetrasodium salt hydrate (NADPH) is prepared at 10 m<in 0.1 M phosphate buffer (pH 7.4).
(§8) The individual CYP bactosomes are thawed at room temperature undiluted to 200 pmol/mL and 0.1 M phosphate buffer.
(§9) Standard final incubation conditions are 1-3 μM compound in a buffer containing 100 pmol/mL CYP bactosome, 1% (v/v) DMSO.
(§10) The elimination rate constant (k) is calculated using the slope of a ln (MS peak area or response—if internal standard is used) vs. time plot of the test compounds and markers.
(§11) Intrinsic clearance in μL/min/nmol CYP is calculated using the following equation: Clint=−1000 k/CYP concentration
(§12) Projected CYP isoform intrinsic clearance accounting for estimated CYP abundance in human liver microsomes (μL/min/mg microsomal protein)* is calculated using the following equation: Projected set isoform intrinsic clearance=Estimated CYP abundance*Clint * Estimated CYP abundance is taken as an average from three literature references 1, 2 3 and the abundances used are as follows (nmol CYP/mg Human Liver Microsomal Protein):
The target in data set [2] is T2, CYP2D6. The data set can be described thus: in vitro. To be noted: recombinant enzyme, pH 7.4.
Protocol: as §5, §6, §7, §8, §9, §10, §11, §12
Data set [3] can be described thus: Human liver mitochondrial fraction intrinsic clearance of SPL026 with/without MAO-A and MAO-B inhibitors. Type of data set: in vitro ADME. The text has this:
(§4) Human Liver Mitochondrial (HLMt) fractions contain high quantities of MAO enzymes and therefore, provide a useful tool to measure the clearance of MAO substrates.

Data set [4] can be described thus: Human liver mitochondrial fraction intrinsic clearance of SPL026, SPL028i, SPL028iii, SPL028viii. The class given is in vitro ADME. As to conditions: 0.5 mg/mL human liver mitochondrial fraction (Table 10).
Source text: as §4

For another data set, the target named is T3, CYP2B6 (Homo sapiens, UniProt P20813).
T3 sequence (P20813 1-491): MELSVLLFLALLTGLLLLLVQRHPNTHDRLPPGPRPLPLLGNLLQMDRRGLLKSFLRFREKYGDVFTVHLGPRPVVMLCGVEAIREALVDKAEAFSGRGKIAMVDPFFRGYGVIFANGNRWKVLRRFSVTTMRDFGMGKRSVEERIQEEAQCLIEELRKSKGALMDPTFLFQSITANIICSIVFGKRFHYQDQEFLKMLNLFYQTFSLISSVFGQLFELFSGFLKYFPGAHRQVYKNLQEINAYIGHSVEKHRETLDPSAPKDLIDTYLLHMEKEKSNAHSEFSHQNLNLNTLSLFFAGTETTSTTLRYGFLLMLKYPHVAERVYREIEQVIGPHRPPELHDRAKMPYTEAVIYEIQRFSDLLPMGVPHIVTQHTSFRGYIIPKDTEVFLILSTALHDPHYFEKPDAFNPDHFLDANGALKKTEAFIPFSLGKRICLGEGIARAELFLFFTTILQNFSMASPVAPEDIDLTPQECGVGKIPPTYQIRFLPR
The data set can be described thus: in vitro. How it is done: as §1, §2, §3

For a further data set, the target named is T4, CYP2C8 (Homo sapiens, UniProt P10632).
T4 sequence (P10632 1-490): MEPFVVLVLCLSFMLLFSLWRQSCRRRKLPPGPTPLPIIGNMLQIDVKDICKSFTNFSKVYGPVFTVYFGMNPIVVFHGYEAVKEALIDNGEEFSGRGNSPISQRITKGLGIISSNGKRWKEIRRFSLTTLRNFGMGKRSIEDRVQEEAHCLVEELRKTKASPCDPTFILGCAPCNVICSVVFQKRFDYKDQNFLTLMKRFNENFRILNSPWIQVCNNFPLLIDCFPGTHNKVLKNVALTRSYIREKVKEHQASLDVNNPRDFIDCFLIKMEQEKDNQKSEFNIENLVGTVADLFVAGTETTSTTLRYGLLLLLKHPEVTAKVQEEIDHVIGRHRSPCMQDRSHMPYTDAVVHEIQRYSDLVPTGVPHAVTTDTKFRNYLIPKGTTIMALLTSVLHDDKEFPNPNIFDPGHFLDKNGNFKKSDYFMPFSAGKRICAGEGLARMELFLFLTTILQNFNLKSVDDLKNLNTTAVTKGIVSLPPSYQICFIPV
Put plainly: in vitro. How it is done:
as §1, §2, §3

Another data set has as its target CYP3A5 (Homo sapiens, UniProt P20815). Put plainly: in vitro. How it is done: as §1, §2, §3
The target in data set [5] is T2, CYP2D6. The data set can be described thus: CYP phenotyping, CYP bactosomes.
Protocol: as §5, §6, §7, §8, §9, §10, §11, §12
Data set [6] can be described thus: In vitro mouse hepatocytic intrinsic clearance. As to conditions: male, CD-1, mouse, hepatocytes.
Data set [7] concerns human (mixed gender) hepatocytes. The data set can be described thus: In vitro intrinsic clearance in human hepatocytes with and without MAO-A/B inhibitor combination (first experiment).
Protocol: Standard final incubation conditions are 1 μM compound in buffer containing nominally ˜0.5 million viable cells/mL, ˜0.9% (v/v) acetonitrile (MeCN) and ˜0.1% (v/v) DMSO (specific assay concentrations outlined above, section 2).
Samples are then centrifuged at 4° C.
The conditions of data set [8]: in vivo; cited from earlier work.
[9] abbreviates: human, recombinant enzyme, pH 7.4.
The mark [10] stands for this setting: human liver mitochondrial fraction, Deprenyl (MAO-B inhibitor) 100 nM.
Where [11] appears, read: E. coli CYPEX membranes, 100 pmol/mL CYP.
Setting [12] is: human hepatocytes, with MAO-A/B inhibitor combination (Table 5).
[13] abbreviates: human hepatocytes, without MAO-A/B inhibitor combination (Table 5).

Chain of CYP2C19 (P33261 whole entry): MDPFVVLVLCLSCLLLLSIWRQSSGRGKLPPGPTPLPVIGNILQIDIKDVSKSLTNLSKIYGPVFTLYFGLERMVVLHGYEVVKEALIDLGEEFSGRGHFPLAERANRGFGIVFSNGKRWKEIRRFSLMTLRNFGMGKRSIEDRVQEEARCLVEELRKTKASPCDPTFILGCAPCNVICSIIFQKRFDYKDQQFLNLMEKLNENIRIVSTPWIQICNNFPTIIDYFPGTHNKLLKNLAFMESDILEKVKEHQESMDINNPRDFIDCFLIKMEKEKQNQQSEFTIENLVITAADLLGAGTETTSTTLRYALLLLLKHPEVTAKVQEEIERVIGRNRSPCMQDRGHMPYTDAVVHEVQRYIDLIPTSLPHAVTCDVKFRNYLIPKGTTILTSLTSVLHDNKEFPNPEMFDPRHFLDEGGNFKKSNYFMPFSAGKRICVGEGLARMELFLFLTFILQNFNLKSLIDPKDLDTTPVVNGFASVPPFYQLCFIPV
Chain of CYP3A5 (P20815 whole entry): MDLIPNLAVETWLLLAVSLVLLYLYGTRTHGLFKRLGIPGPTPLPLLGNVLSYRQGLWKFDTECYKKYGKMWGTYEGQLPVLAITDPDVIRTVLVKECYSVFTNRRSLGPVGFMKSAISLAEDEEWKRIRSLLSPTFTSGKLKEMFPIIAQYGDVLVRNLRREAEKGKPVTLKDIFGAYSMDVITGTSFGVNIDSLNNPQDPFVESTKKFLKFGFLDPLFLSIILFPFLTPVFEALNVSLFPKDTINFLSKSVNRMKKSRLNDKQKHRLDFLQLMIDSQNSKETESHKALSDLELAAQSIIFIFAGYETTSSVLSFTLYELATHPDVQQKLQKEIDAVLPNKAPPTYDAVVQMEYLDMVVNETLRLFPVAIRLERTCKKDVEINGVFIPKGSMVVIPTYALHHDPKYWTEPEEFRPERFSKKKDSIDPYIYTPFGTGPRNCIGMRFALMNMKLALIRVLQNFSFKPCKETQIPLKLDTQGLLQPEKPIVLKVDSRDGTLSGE

Consider `COc1ccccc1OCCNCC(O)COc1cccc2[nH]c3ccccc3c12` (stereo not drawn) [Carvedilol, reference compound], for which, at CYP1A2 (setting [9]), the half-life worked out at 0.5 h and the “intrinsic clearance, CYP isoform 1A2” value is reported as 231 μL/min/nmol CYP. On CYP2C19 (setting [9]), the half-life was 0.217 h and the “intrinsic clearance, CYP isoform 2C19” value was 526 μL/min/nmol CYP. Besides, at CYP2C9 (setting [9]), the half-life turned out to be 2.23 h and the “intrinsic clearance, CYP isoform 2C9” value turned out to be 52 μL/min/nmol CYP. In addition, on CYP3A4 (setting [9]), the half-life was determined as 0.817 h and the “intrinsic clearance, CYP isoform 3A4” value turned out to be 142 μL/min/nmol CYP. The “intrinsic clearance, CYP isoform 2D6” value at CYP2D6 [1] (setting [9]) came out at 4483 μL/min/nmol CYP. Further, the half-life at CYP2D6 [2] is 2 min.

Take `CN(C)CCc1c[nH]c2ccccc12` [SPL026, N,N-dimethyltryptamine, reference compound]: the half-life in data set [3] (0.5 mg/mL human liver mitochondrial fraction, DMSO Vehicle (no inhibitor)) was 0.562 h; in data set [3] (human liver mitochondrial fraction, Clorgyline (MAO-A inhibitor) 100 nM) it was more than 6.228 h; in data set [3] (setting [10]) it was 0.542 h; in data set [4], 8.6 min; at CYP1A2 (setting [9]), more than 4 h; on CYP2B6 (setting [9]), more than 4 h. For the same compound, the half-life is more than 4 h at CYP2C8 (setting [9]); more than 4 h on CYP3A5 (setting [9]); 3.15 h on CYP2C19 (setting [9]); more than 4 h on CYP2C9 (setting [9]); more than 4 h at CYP3A4 (setting [9]); 9 min at CYP2D6 [2]. Further, the “Intrinsic Clearance” value in [3] (setting [10]) was found to be 42.7 μL/min/mg protein. Further, the “intrinsic clearance, CYP isoform 1A2” value at CYP1A2 (setting [11]) is reported as less than 29 μL/min/nmol CYP. The “intrinsic clearance, CYP isoform 2B6” value at CYP2B6 (setting [11]) was less than 29 μL/min/nmol CYP. Moreover, on CYP2C8 (setting [11]), the “intrinsic clearance, CYP isoform 2C8” value was less than 29 μL/min/nmol CYP. The “intrinsic clearance, CYP isoform 3A5” value at CYP3A5 (setting [11]) is less than 29 μL/min/nmol CYP. Besides, the “substrate for CYP2C19” value at CYP2C19 (CYP phenotyping) is “substrates”. Besides, the “intrinsic clearance, CYP isoform 2C19” value at CYP2C19 (setting [11]) amounted to 37 μL/min/nmol CYP. Also, on CYP2C19 (scaled by estimated CYP abundance in human liver microsomes (0.009 nmol CYP/mg)), the “projected scaled intrinsic clearance, CYP isoform 2C19” value was 0.3 μl/min/mg microsomal protein. Further, the “intrinsic clearance, CYP isoform 2C9” value at CYP2C9 (setting [11]) was less than 29 μL/min/nmol CYP. Besides, the “intrinsic clearance, CYP isoform 3A4” value on CYP3A4 (setting [11]) is less than 29 μL/min/nmol CYP. In addition, the “projected scaled intrinsic clearance, CYP isoform 2D6” value at CYP2D6 [1] was 9.5 μl/min/mg microsomal protein. Also, the “substrate for CYP2D6” value on CYP2D6 [5] (CYP phenotyping) was “substrates”. For the same compound, the “intrinsic clearance, CYP isoform 2D6” value at CYP2D6 [5] (setting [11]) amounted to 801 μL/min/nmol CYP. This compound displayed a half-life at 5 μM in [6] of 0.255 h. The hepatocyte CLint at 5 μM in [6] worked out at 124 µL/min/1e6 cells. Besides, in data set [7] (human hepatocytes (Table 5)), the “% change in half-life, MAO inhibitors vs no inhibitors” value turned out to be 3.82%. The “% change in intrinsic clearance, MAO inhibitors vs no inhibitors” value in data set [7] (human hepatocytes (Table 5)) is given as −4.00%. Also, the “Intrinsic clearance, with inhibitors” value is on record as 13.24 μL/min/million cells in data set [7] (human hepatocytes, with 100 nM clorgyline + 100 nM deprenyl/selegiline (Table 3)) and 13.24 μL/min/million cells in [7] (setting [12]). Moreover, the “Half-life, with inhibitors” value came to 1.601 h in data set [7] (setting [12]) and 1.601 h in data set [7] (human hepatocytes, with MAO-A/B inhibitors (Table 4; unit given only in Table 5)). Besides, the “slower intrinsic clearance with inclusion of MAO inhibitors” value in [7] (human hepatocytes, with vs without MAO inhibitors) is approximately 4%. Further, the “Half-life, without inhibitors” value in data set [7] (human hepatocytes, without MAO inhibitors (Table 4; unit given only in Table 5)) is 1.54 h; in data set [7] (setting [13]) it was 1.54 h. For the same compound, the “Intrinsic clearance, without inhibitors” value in data set [7] (setting [13]) was 13.77 μL/min/million cells.

With `[2H]C([2H])(c1c[nH]c2ccccc12)C([2H])([2H])N(C)C` [D4DMT, α,α,β,β-tetradeutero-N,N-dimethyltryptamine], the “behavioural effect compared to equal doses of DMT” value in [8] was “shorter time to onset and potentiation of behaviour disrupting effects”.
